From patent US12404289B2 (Gilead Sciences, Inc., priority 2020, dated 2025)

Tested on: Respiratory syncytial virus (RSV) strain A2
Assay: RSV antiviral assay (HEp-2, 96 well)
Type: cell-based
Details: human respiratory syncytial virus, HEp-2, 96 h, read-out: EC50 RSV HEP2 96, HEp-2 cells, RSV A2, MOI=4, 4 days, 96 well; Table 3

Q: For `CCC(CC)COC(=O)[C@H](C)NP(=O)(OC[C@H]1O[C@@](C#N)(c2ccc3c(N)ncnn23)[C@H](O)[C@@H]1O)Oc1ccc2ccccc2c1` (single isomer, unassigned) [Intermediate S3-a], which EC50 is on record?
A: The EC50 was 28.2 nM.

Q: `COC(C)(C)CCOC(=O)[C@H](C)NP(=O)(OC[C@H]1O[C@@](C#N)(c2ccc3c(N)ncnn23)[C@H](OC(=O)C(C)C)[C@@H]1OC(=O)C(C)C)Oc1ccccc1` (stereo partly drawn) [Example 76, [(2R,3R,4R,5R)-5-(4-aminopyrrolo[2,1-f][1,2,4]triazin-7-yl)-5-cyano-2-[[[[(1S)-2-(3-methoxy-3-methyl-butoxy)-1-methyl-2-oxo-ethyl]amino]-phenoxy-phosphoryl]oxymethyl]-4-(2-methylpropanoyloxy)tetrahydrofuran-3-yl] 2-methylpropanoate] was tested. Which EC50 did it give?
A: Its EC50 is 29.2 nM.

Q: For `CCCCCCOC(=O)[C@H](Cc1ccccc1)NP(=O)(OC[C@H]1O[C@@](C#N)(c2ccc3c(N)ncnn23)[C@H](OC(=O)C(C)C)[C@@H]1OC(=O)C(C)C)Oc1ccc(C(C)(C)C)cc1` (stereo partly drawn) [Example 123, (2R,3R,4R,5R)-2-(4-aminopyrrolo[2,1-f][1,2,4]triazin-7-yl)-5-((((4-(tert-butyl)phenoxy)(((S)-1-(hexyloxy)-1-oxo-3-phenylpropan-2-yl)amino)phosphoryl)oxy)methyl)-2-cyanotetrahydrofuran-3,4-diyl bis(2-methylpropanoate)], which EC50 is on record?
A: Its EC50 is 63.7 nM.

Q: How did the EC50 turn out when `CCC(CC)COC(=O)[C@H](C)NP(=O)(OC[C@H]1O[C@@](C#N)(c2ccc3c(N)ncnn23)[C@H](OC(=O)C(C)C)[C@@H]1OC(=O)C(C)C)Oc1cccc(C(C)(C)C)c1` (stereo partly drawn) [Example 91, [(2R,3R,4R,5R)-5-(4-aminopyrrolo[2,1-f][1,2,4]triazin-7-yl)-2-[[(3-tert-butylphenoxy)-[[(1S)-2-(2-ethylbutoxy)-1-methyl-2-oxo-ethyl]amino]phosphoryl]oxymethyl]-5-cyano-4-(2-methylpropanoyloxy)tetrahydrofuran-3-yl] 2-methylpropanoate] was run?
A: Its EC50 is 194 nM.

Q: How did the EC50 turn out when `CC(C)C(=O)O[C@H]1[C@@H](OC(=O)C(C)C)[C@](C#N)(c2ccc3c(N)ncnn23)O[C@@H]1COP(=O)(N[C@@H](C)C(=O)OC1CCCCCCC1)Oc1ccc(C(C)(C)C)cc1` (single isomer, unassigned) [Example 77a] was run?
A: The EC50 was 194 nM.

Q: Which EC50 does the source give for `CCC(=O)O[C@H]1[C@@H](OC(=O)CC)[C@](C#N)(c2ccc3c(N)ncnn23)O[C@@H]1CO[P@@](=O)(N[C@@H](C)C(=O)OCC(C)(C)OC)Oc1ccccc1` [Example 169, (2R,3R,4R,5R)-2-(4-aminopyrrolo[2,1-f][1,2,4]triazin-7-yl)-2-cyano-5-((((S)—(((S)-1-(2-methoxy-2-methylpropoxy)-1-oxopropan-2-yl)amino)(phenoxy)phosphoryl)oxy)methyl)tetrahydrofuran-3,4-diyl Dipropionate] here?
A: The EC50 was 62.9 nM.

Q: `CC(=O)O[C@H]1[C@@H](OC(C)=O)[C@](C#N)(c2ccc3c(N)ncnn23)O[C@@H]1COP(=O)(N[C@@H](C)C(=O)OC1CCC1)Oc1ccc(C2CC2)cc1` (single isomer, unassigned) [Example 53a] was tested. Which EC50 did it give?
A: Its EC50 is 38.1 nM.

Q: `CCC(CC)COC(=O)[C@H](C)NP(=O)(OC[C@H]1O[C@@](C#N)(c2ccc3c(N)ncnn23)[C@H](O)[C@@H]1O)Oc1ccc(C[C@H](NC(=O)OCc2ccccc2)C(=O)OCCC(C)C)cc1` (stereo partly drawn) [Example 71, isopentyl (2S)-3-[4-[[(2R,3S,4R,5R)-5-(4-aminopyrrolo[2,1-f][1,2,4]triazin-7-yl)-5-cyano-3,4-dihydroxy-tetrahydrofuran-2-yl]methoxy-[[(1S)-2-(2-ethylbutoxy)-1-methyl-2-oxo-ethyl]amino]phosphoryl]oxyphenyl]-2-(benzyloxycarbonylamino)propanoate] was tested. Which EC50 did it give?
A: Its EC50 is 1790 nM.

Q: `CCOCCOCCOC(=O)[C@H](C)NP(=O)(OC[C@H]1O[C@@](C#N)(c2ccc3c(N)ncnn23)[C@H](O)[C@@H]1O)Oc1ccc(C(C)(C)C)cc1` (stereo partly drawn) [Example 112, 2-(2-ethoxyethoxy)ethyl ((((2R,3S,4R,5R)-5-(4-aminopyrrolo[2,1-f][1,2,4]triazin-7-yl)-5-cyano-3,4-dihydroxytetrahydrofuran-2-yl)methoxy)(4-(tert-butyl)phenoxy)phosphoryl)-L-alaninate] was tested. Which EC50 did it give?
A: The EC50 was 560 nM.

Q: With `CCC(=O)O[C@@H]1[C@H](OC(=O)C(N)C(C)C)[C@@H](COP(=O)(N[C@@H](C)C(=O)OCC(CC)CC)Oc2ccccc2)O[C@@]1(C#N)c1ccc2c(N)ncnn12` (stereo in doubt) [Example 88, [(2R,3R,4R,5R)-5-(4-aminopyrrolo[2,1-f][1,2,4]triazin-7-yl)-5-cyano-2-[[[[(1S)-2-(2-ethylbutoxy)-1-methyl-2-oxo-ethyl]amino]-phenoxy-phosphoryl]oxymethyl]-4-propanoyloxy-tetrahydrofuran-3-yl] (2R)-2-amino-3-methyl-butanoate] as the molecule, how does the EC50 read?
A: Its EC50 is 21.4 nM.

Q: Which EC50 does the source give for `CCC(CC)COC(=O)[C@H](C)NP(=O)(OC[C@H]1O[C@@](C#N)(c2ccc3c(N)ncnn23)[C@H](O)[C@@H]1O)Oc1cccc(C(C)(C)C)c1` (stereo partly shown) [Example 68a] here?
A: Its EC50 is 60.8 nM.

Q: Which EC50 does the source give for `C[C@H](NP(=O)(OC[C@H]1O[C@@](C#N)(c2ccc3c(N)ncnn23)[C@H](O)[C@@H]1O)Oc1ccccc1)C(=O)OCCC(C)(C)C` (stereo partly drawn) [Intermediate P8a, 3,3-dimethylbutyl ((((2R,3S,4R,5R)-5-(4-aminopyrrolo[2,1-f][1,2,4]triazin-7-yl)-5-cyano-3,4-dihydroxytetrahydrofuran-2-yl)methoxy)(phenoxy)phosphoryl)-L-alaninate] here?
A: The EC50 was 20.3 nM.

Q: `CCC(C)(C)CCOC(=O)[C@H](C)NP(=O)(OC[C@H]1O[C@@](C#N)(c2ccc3c(N)ncnn23)[C@H](O)[C@@H]1O)Oc1ccccc1` (stereo partly drawn) [Intermediate S4, 3,3-dimethylpentyl ((((2R,3S,4R,5R)-5-(4-aminopyrrolo[2,1-f][1,2,4]triazin-7-yl)-5-cyano-3,4-dihydroxytetrahydrofuran-2-yl)methoxy)(phenoxy)phosphoryl)-L-alaninate] was tested. Which EC50 did it give?
A: Its EC50 is 14.9 nM.

Q: `CCC(C)(C)COC(=O)[C@H](C)NP(=O)(OC[C@H]1O[C@@](C#N)(c2ccc3c(N)ncnn23)[C@H](OC(=O)C(C)C)[C@@H]1OC(=O)C(C)C)Oc1ccccc1` (stereo partly drawn) [Example 114, (2R,3R,4R,5R)-2-(4-aminopyrrolo[2,1-f][1,2,4]triazin-7-yl)-2-cyano-5-((((((S)-1-(2,2-dimethylbutoxy)-1-oxopropan-2-yl)amino)(phenoxy)phosphoryl)oxy)methyl)tetrahydrofuran-3,4-diyl bis(2-methylpropanoate)] was tested. Which EC50 did it give?
A: Its EC50 is 61 nM.

Q: With `CC(C)CC(=O)O[C@H]1[C@@H](OC(=O)CC(C)C)[C@](C#N)(c2ccc3c(N)ncnn23)O[C@@H]1COP(=O)(N[C@@H](C)C(=O)OC1CCC1)Oc1ccccc1` (stereo partly drawn) [Example 109, (2R,3R,4R,5R)-2-(4-aminopyrrolo[2,1-f][1,2,4]triazin-7-yl)-2-cyano-5-((((((S)-1-cyclobutoxy-1-oxopropan-2-yl)amino)(phenoxy)phosphoryl)oxy)methyl)tetrahydrofuran-3,4-diyl bis(3-methylbutanoate)] as the molecule, how does the EC50 read?
A: Its EC50 is 43.5 nM.

Q: How did the EC50 turn out when `CCOC(=O)[C@H](C)NP(=O)(OC[C@H]1O[C@@](C#N)(c2ccc3c(N)ncnn23)[C@H](OC(=O)C(C)C)[C@@H]1OC(=O)C(C)C)Oc1ccc(C(C)C)cc1` (stereo partly drawn) [Example 64, [(2R,3R,4R,5R)-5-(4-aminopyrrolo[2,1-f][1,2,4]triazin-7-yl)-5-cyano-2-[[[[(1S)-2-ethoxy-1-methyl-2-oxo-ethyl]amino]-(4-isopropylphenoxy)phosphoryl]-oxymethyl]-4-(2-methylpropanoyloxy)tetrahydrofuran-3-yl] 2-methylpropanoate] was run?
A: Its EC50 is 57.9 nM.

Q: `CCOC(=O)[C@H](C)NP(=O)(OC[C@H]1O[C@@](C#N)(c2ccc3c(N)ncnn23)[C@H](O)[C@@H]1O)Oc1ccc(C(C)C)cc1` (stereo partly shown) [Example 63a] was tested. Which EC50 did it give?
A: Its EC50 is 104 nM.

Q: With `C[C@H](NP(=O)(OC[C@H]1O[C@@](C#N)(c2ccc3c(N)ncnn23)[C@H](O)[C@@H]1O)Oc1ccc(C(C)(C)C)cc1)C(=O)O[C@H]1CC[C@H](C(F)(F)F)CC1` (single isomer, unassigned) [Example 84a] as the molecule, how does the EC50 read?
A: Its EC50 is 185 nM.

Q: For `C[C@H](NP(=O)(OC[C@H]1O[C@@](C#N)(c2ccc3c(N)ncnn23)[C@H](O)[C@@H]1O)Oc1ccc(C(C)(C)C)cc1)C(=O)OC1CCCCCCC1` (stereo partly drawn) [Example 73, cyclooctyl (2S)-2-[[[(2R,3S,4R,5R)-5-(4-aminopyrrolo[2,1-f][1,2,4]triazin-7-yl)-5-cyano-3,4-dihydroxy-tetrahydrofuran-2-yl]methoxy-(4-tert-butylphenoxy)phosphoryl]amino]propanoate], which EC50 is on record?
A: Its EC50 is 552 nM.

Same assay, conditions: read-out: EC50 RSV HEP2 96; HEp-2 cells, RSV A2, MOI=4, 4 days, 96 well; Table 3

Q: For `C[C@H](NP(=O)(OC[C@H]1O[C@@](C#N)(c2ccc3c(N)ncnn23)[C@H](O)[C@@H]1O)Oc1ccc(C2CC2)cc1)C(=O)OC1CCC1` (stereo partly drawn) [Example 51b, cyclobutyl (2S)-2-[[[(2R,3S,4R,5R)-5-(4-aminopyrrolo[2,1-f][1,2,4]triazin-7-yl)-5-cyano-3,4-dihydroxy-tetrahydrofuran-2-yl]methoxy-(cyclopropylphenoxy)phosphoryl]amino]propanoate], which EC50 is on record?
A: Its EC50 is 86.8 nM.

Q: How did the EC50 turn out when `C[C@H](NP(=O)(OC[C@H]1O[C@@](C#N)(c2ccc3c(N)ncnn23)[C@H](O)[C@@H]1O)Oc1ccc(C(C)(C)C)cc1)C(=O)O[C@H]1CC[C@H](C(F)(F)F)CC1` (single isomer, unassigned) [Example 84b] was run?
A: The EC50 was 186 nM.

Q: `CC(C)C(=O)O[C@H]1[C@@H](OC(=O)C(C)C)[C@](C#N)(c2ccc3c(N)ncnn23)O[C@@H]1COP(=O)(N[C@@H](C)C(=O)OCCC(C)(C)C)Oc1ccccc1` (single isomer, unassigned) [Example 56b] was tested. Which EC50 did it give?
A: Its EC50 is 74.7 nM.

Q: With `CC(C)C(=O)O[C@H]1[C@@H](OC(=O)C(C)C)[C@](C#N)(c2ccc3c(N)ncnn23)O[C@@H]1COP(=O)(N[C@@H](C)C(=O)OCCC(C)(C)C)Oc1ccccc1` (single isomer, unassigned) [Example 56a] as the molecule, how does the EC50 read?
A: The EC50 was 35.5 nM.

Q: For `CC(C)C(=O)O[C@H]1[C@@H](OC(=O)C(C)C)[C@](C#N)(c2ccc3c(N)ncnn23)O[C@@H]1COP(=O)(N[C@@H](C)C(=O)O[C@H]1CC[C@H](C(F)(F)F)CC1)Oc1ccc(C(C)(C)C)cc1` (single isomer, unassigned) [Example 85b], which EC50 is on record?
A: The EC50 was 80.5 nM.

Q: For `CCOC(=O)[C@H](C)NP(=O)(OC[C@H]1O[C@@](C#N)(c2ccc3c(N)ncnn23)[C@H](O)[C@@H]1O)Oc1ccc(C(C)C)cc1` (stereo partly shown) [Example 63b], which EC50 is on record?
A: Its EC50 is 98.6 nM.
